Experimental data from patent US12331054B2, “Perk inhibiting imidazolopyrazine compounds” (HiberCell, Inc., priority 2019, dated 2025).

Key:
[1] = target: Recombinant human EIF2AK3 (PERK) catalytic domain (amino acids 536-1116) (Homo sapiens (Human), UniProt Q9NZJ5); assay: PERK In Vitro Activity Assay (isolated), TR-FRET kinase assay; settings: isolated PERK enzyme, 1.5 μM ATP, read-out: Biochemical IC50
Method in brief: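 Recombinant PERK catalytic domain was incubated with 100–200 nM GFP-eIF2a substrate in 50 mM HEPES pH 7.5, 10 mM MgCl2, 1.0 mM EGTA and 0.01% Brij-35 for 45 min at room temperature. After a 10 mM EDTA stop, 2 nM Tb-anti-phospho-eIF2a was added for 90 min, and IC50 was fitted from TR-FRET ratios by 4-parameter logistic regression.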

[2] = test system: eIF2α in HEK293-EGFP-eIF2α cells; assay: PERK Cellular Assay (HEK293-EGFP-eIF2α cells, tunicamycin-induced ER stress, TR-FRET); type: cell-based; settings: tunicamycin 2 hours
Method in brief: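 Cells pre-incubated with inhibitor 30 min at 37 °C, then ER stress induced with […] tunicamycin for 2 h. TR-FRET read on lysates; ratio normalized to DMSO control as percent inhibition over a 10-point, 3-fold dilution series; IC50 from 4-parameter logistic fit.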

Chain of Recombinant human EIF2AK3 (PERK) catalytic domain (amino acids 536-1116) (Q9NZJ5 536-1116): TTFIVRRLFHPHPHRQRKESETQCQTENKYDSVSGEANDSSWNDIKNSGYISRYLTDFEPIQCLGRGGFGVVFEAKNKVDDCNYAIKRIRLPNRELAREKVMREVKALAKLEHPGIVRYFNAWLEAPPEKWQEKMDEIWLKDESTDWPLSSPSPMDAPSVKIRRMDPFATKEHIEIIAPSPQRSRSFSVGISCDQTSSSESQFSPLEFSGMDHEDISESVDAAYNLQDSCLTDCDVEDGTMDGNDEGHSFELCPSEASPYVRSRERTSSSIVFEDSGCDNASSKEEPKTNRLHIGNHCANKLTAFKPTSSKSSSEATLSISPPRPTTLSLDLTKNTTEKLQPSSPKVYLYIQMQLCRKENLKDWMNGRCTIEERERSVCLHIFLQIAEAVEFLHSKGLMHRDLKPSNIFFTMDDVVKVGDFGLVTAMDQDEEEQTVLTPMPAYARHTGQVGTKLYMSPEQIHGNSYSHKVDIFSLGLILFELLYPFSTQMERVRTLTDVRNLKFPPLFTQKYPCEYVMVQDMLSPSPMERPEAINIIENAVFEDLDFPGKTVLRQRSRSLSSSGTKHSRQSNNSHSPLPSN

Row | SMILES | IC50 [1] | IC50 [2]
1 | [2H]C([2H])([2H])c1nc(-c2ccc(NC(=O)C(O)c3cccc(F)c3)nc2C)c2c(N)nc(C)cn12 (stereo not drawn) [Example 171, N-[5-[8-amino-6-methyl-3-(trideuteriomethyl)imidazo[1,5-a]pyrazin-1-yl]-6-methyl-2-pyridyl]-2-(3-fluorophenyl)-2-hydroxy-acetamide] | 1000 to 2000 nM | > 5000 nM
2 | [2H]C([2H])([2H])c1nc(-c2ccc(NC(=O)C(O)c3cccc(C(F)(F)F)c3)nc2C)c2c(N)ncc(C)n12 (stereo not drawn) [Example 174, N-[5-[8-amino-5-methyl-3-(trideuteriomethyl)imidazo[1,5-a]pyrazin-1-yl]-6-methyl-2-pyridyl]-2-hydroxy-2-[3-(trifluoromethyl)phenyl]acetamide] | 1 to 25 nM | 26 to 50 nM
3 | [2H]C([2H])([2H])c1nc(-c2ccc(NC(=O)C(O)c3cccc(C(F)(F)F)c3)nc2C)c2c(N)ncc(C)n12 (stereo not drawn) [Example 175, N-[5-[8-amino-5-methyl-3-(trideuteriomethyl)imidazo[1,5-a]pyrazin-1-yl]-6-methyl-2-pyridyl]-2-hydroxy-2-[3-(trifluoromethyl)phenyl]acetamide] | 1 to 25 nM | 101 to 250 nM
4 | [2H]C([2H])([2H])c1nc(-c2ccc(NC(=O)C(O)c3cccc(C(F)(F)F)c3)nc2C)c2c(N)nc(C)cn12 (stereo not drawn) [Example 176, N-[5-[8-amino-6-methyl-3-(trideuteriomethyl)imidazo[1,5-a]pyrazin-1-yl]-6-methyl-2-pyridyl]-2-hydroxy-2-[3-(trifluoromethyl)phenyl]acetamide] | 1 to 25 nM | 51 to 100 nM
5 | [2H]C([2H])([2H])c1nc(-c2ccc(NC(=O)C(O)c3cccc(C(F)(F)F)c3)nc2C)c2c(N)nc(C)cn12 (stereo not drawn) [Example 177, N-[5-[8-amino-6-methyl-3-(trideuteriomethyl)imidazo[1,5-a]pyrazin-1-yl]-6-methyl-2-pyridyl]-2-hydroxy-2-[3-(trifluoromethyl)phenyl]acetamide] | 101 to 250 nM | 501 to 1000 nM
6 | [2H]C([2H])([2H])c1nc(-c2cnc(NC(=O)C(O)c3cccc(F)c3)cc2C)c2c(N)nc(C)cn12 (stereo not drawn) [Example 178, N-[5-[8-amino-6-methyl-3-(trideuteriomethyl)imidazo[1,5-a]pyrazin-1-yl]-4-methyl-2-pyridyl]-2-(3-fluorophenyl)-2-hydroxy-acetamide] | 251 to 500 nM | 4000 to 5000 nM
7 | [2H]C([2H])([2H])c1nc(-c2cnc(NC(=O)C(O)c3cccc(C(F)(F)F)c3)cc2C)c2c(N)nc(C)cn12 (stereo not drawn) [Example 182, N-[5-[8-amino-6-methyl-3-(trideuteriomethyl)imidazo[1,5-a]pyrazin-1-yl]-4-methyl-2-pyridyl]-2-hydroxy-2-[3-(trifluoromethyl)phenyl]acetamide] | 1 to 25 nM | 101 to 250 nM
8 | [2H]C([2H])([2H])c1nc(-c2cnc(NC(=O)C(O)c3cccc(C(F)(F)F)c3)cc2C)c2c(N)nc(C)cn12 (stereo not drawn) [Example 183, N-[5-[8-amino-6-methyl-3-(trideuteriomethyl)imidazo[1,5-a]pyrazin-1-yl]-4-methyl-2-pyridyl]-2-hydroxy-2-[3-(tnfluoromethyl)phenyl]acetamide] | 251 to 500 nM | 2000 to 3000 nM

Continued, in another order:

Row | IC50 [1] | SMILES | IC50 [2]
9 | 1 to 25 nM | [2H]C([2H])([2H])c1nc(-c2ccc(NC(=O)C(O)c3cccc(F)c3)nc2C)c2c(N)ncc(C)n12 (stereo not drawn) [Example 173, N-[5-[8-amino-5-methyl-3-(trideuteriomethyl)imidazo[1,5-a]pyrazin-1-yl]-6-methyl-2-pyridyl]-2-(3-fluorophenyl)-2-hydroxy-acetamide] | 26 to 50 nM
10 | 1 to 25 nM | [2H]C([2H])([2H])c1nc(-c2cnc(NC(=O)C(O)c3cccc(F)c3)cc2C)c2c(N)nc(C)cn12 (stereo not drawn) [Example 179, N-[5-[8-amino-6-methyl-3-(trideuteriomethyl)imidazo[1,5-a]pyrazin-1-yl]-4-methyl-2-pyridyl]-2-(3-fluorophenyl)-2-hydroxy-acetamide] | 251 to 500 nM
11 | 26 to 50 nM | [2H]C([2H])([2H])c1nc(-c2cnc(NC(=O)C(O)c3cccc(F)c3)cc2C)c2c(N)ncc(C)n12 (stereo not drawn) [Example 180, N-[5-[8-amino-5-methyl-3-(trideuteriomethyl)imidazo[1,5-a]pyrazin-1-yl]-4-methyl-2-pyridyl]-2-(3-fluorophenyl)-2-hydroxy-acetamide] | 501 to 1000 nM
12 | 1 to 25 nM | [2H]C([2H])([2H])c1nc(-c2cnc(NC(=O)C(O)c3cccc(F)c3)cc2C)c2c(N)ncc(C)n12 (stereo not drawn) [Example 181, N-[5-[8-amino-5-methyl-3-(trideuteriomethyl)imidazo[1,5-a]pyrazin-1-yl]-4-methyl-2-pyridyl]-2-(3-fluorophenyl)-2-hydroxy-acetamide] | 26 to 50 nM
